{"source": "paper PMC9673926", "about": "“Nucleotide binding as an allosteric regulatory mechanism for Akkermansia muciniphila β-N-acetylhexosaminidase Am2136” (Gut Microbes, 2022)", "key": {"Am2136 WT": {"molecular_target": "T1, Am2136 WT (Akkermansia muciniphila, UniProt B2UPR7)", "T1 construct": "The coding region (residue Q20-L756) of Am2136 without signal peptide was based on UniProt; 6XHis (N); made in house; host or cells: E. coli BL21 (DE3)", "T1 sequence (B2UPR7 20-756)": "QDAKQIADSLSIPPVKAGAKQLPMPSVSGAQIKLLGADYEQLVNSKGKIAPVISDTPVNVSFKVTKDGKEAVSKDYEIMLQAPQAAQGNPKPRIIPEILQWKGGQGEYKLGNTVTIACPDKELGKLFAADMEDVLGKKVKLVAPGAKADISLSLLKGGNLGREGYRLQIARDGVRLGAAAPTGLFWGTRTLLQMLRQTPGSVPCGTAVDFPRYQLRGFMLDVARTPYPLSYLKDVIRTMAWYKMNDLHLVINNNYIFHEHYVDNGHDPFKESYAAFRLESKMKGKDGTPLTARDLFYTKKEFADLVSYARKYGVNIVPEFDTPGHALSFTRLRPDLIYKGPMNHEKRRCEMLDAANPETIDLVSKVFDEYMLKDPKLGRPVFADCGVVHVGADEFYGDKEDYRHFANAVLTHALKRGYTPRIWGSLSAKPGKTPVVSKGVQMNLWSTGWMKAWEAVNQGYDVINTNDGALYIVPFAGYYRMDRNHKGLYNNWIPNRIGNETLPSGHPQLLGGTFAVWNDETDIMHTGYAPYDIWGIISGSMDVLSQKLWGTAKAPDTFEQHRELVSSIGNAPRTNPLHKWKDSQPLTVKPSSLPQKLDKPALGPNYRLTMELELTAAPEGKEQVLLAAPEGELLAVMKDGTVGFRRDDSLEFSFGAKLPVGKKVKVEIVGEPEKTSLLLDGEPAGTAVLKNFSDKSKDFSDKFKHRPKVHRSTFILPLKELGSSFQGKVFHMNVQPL", "assay": "Nucleotide binding affinity by intrinsic fluorescence", "protocol": "The nucleotide binding ability was determined on Fluorescence Spectrometer Duetta (HORIBA) by measuring the change of peak intensity. The fluorescence was excited at 286 nm and emitted at 336 nm. And the measurement was processed under 400 V voltage with 2.5 nm excitation slit and 5 nm emission slit. […] The sample was incubated at 4°C for 5 min before testing."}, "Am2136 E649A": {"molecular_target": "T2, Am2136 E649A (Akkermansia muciniphila, UniProt B2UPR7, E649A)", "T2 sequence (B2UPR7 20-756 E649A)": "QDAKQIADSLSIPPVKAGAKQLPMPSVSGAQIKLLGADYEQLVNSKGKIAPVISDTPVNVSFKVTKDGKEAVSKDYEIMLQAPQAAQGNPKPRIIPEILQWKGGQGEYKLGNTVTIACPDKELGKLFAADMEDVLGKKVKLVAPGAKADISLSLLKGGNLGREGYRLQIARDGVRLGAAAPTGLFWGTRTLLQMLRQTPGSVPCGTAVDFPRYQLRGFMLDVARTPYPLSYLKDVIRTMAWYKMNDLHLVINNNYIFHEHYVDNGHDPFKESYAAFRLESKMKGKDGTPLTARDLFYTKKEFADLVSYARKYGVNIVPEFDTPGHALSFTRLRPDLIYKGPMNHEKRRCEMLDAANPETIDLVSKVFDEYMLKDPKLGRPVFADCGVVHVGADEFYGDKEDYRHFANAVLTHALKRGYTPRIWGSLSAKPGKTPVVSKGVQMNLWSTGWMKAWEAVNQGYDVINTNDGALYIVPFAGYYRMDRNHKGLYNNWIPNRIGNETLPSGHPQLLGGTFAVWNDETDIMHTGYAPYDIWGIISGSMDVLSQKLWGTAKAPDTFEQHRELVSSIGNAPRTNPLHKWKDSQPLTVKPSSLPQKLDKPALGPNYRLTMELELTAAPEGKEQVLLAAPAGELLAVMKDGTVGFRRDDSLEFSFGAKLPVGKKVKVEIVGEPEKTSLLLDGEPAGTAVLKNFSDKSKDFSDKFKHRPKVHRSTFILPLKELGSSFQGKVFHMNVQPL", "assay": "GDP regulated enzyme activity assay, mutant", "conditions": "1 mM GDP, substrate pNP-β-GlcNAc"}, "Am2136 P595A+H597A": {"molecular_target": "T3, Am2136 P595A+H597A (Akkermansia muciniphila, UniProt B2UPR7, H597A/P595A)", "T3 sequence (B2UPR7 20-756 P595A/H597A)": "T2 sequence (B2UPR7 20-756 E649A) with P576A, H578A, A630E", "assay": "GDP regulated enzyme activity assay, mutant", "conditions": "1 mM GDP"}}, "note": "Where a chain is given by its changes, count along the chain named."}
{"smiles": "Nc1nc2c(ncn2[C@@H]2O[C@H](COP(=O)(O)OP(=O)(O)O)[C@@H](O)[C@H]2O)c(=O)[nH]1", "note": "[GDP]", "values": [{"measurement": "Kd", "setting": "Am2136 WT; Am2136 WT, fluorescence ex 286 nm/em 336 nm", "result": 116, "unit": "µM"}, {"measurement": "Kd", "setting": "Am2136 WT; WT dialyzed (EDTA treated)", "result": "114 ± 5.22", "unit": "µM"}, {"measurement": "Kd", "setting": "Am2136 WT; WT dialyzed + Ca^2+", "result": "117 ± 4.37", "unit": "µM"}, {"measurement": "Kd", "setting": "Am2136 WT; WT dialyzed + Mg^2+", "result": "118 ± 5.85", "unit": "µM"}, {"measurement": "Vmax", "setting": "Am2136 E649A", "result": "453 ± 6", "unit": "µmol/min"}, {"measurement": "Vmax", "setting": "Am2136 P595A+H597A; P595A+H597A, substrate pNP-β-GlcNAc", "result": "447 ± 4", "unit": "µmol/min"}, {"measurement": "increase of kcat/Km with versus without GDP", "setting": "Am2136 P595A+H597A; P595A/H597A", "result": "roughly two-fold increase"}]}
